Like-named read-outs stand apart in the source and are kept apart here.
Tested on: α7 integrin promoter
Assay: muscle cell-based assay: α7βgal+/− myoblasts/myotubes, LacZ reporter, β-galactosidase cleavage of FDG
Design: species or system mouse
Conditions: for EC50: Mus musculus, read-out: Fit LogAC50 (converted)
Description: An α7 integrin null mouse was produced in which exon 1 of the gene encoding the α7 integrin was replaced by the LacZ reporter. In these mice, all the transcriptional regulatory elements of the α7 integrin promoter were retained, allowing β-galactosidase to report expression of 7 integrin. A primary myoblast cell line (designated α7βgal^+/−) isolated from 10 day old α7^+/− pups were analyzed for the ability of β-galactosidase to report α7 integrin expression. α7βgal^+/− myoblasts were differentiated and subjected to X-gal staining and western analysis (FIGS. 1A and 1B).
The activity of the α7 integrin promoter was measured by β-galactosidase cleavage of the non-fluorescent compound fluorescein di-β-D-galactopyranoside (FDG) to fluorescein. This assay was used to screen compound libraries to identify molecules that up-regulate α7 integrin expression in muscle.
Also evaluated was the effect of various isoforms of laminin and the ligand for α7β1 integrin on integrin expression. Positive hits were subjected to dose-response analysis, western analysis and a myostatin counterscreen (a negative regulator of muscle growth).

[1] = given as log AC50 (negative values)
[2] = curve class number, key not given
[3] = curve fit, activity at zero concentration

SMILES	EC50 [1] [µM]	Score (Table 12 compound data)	Fit Curve Class [2]	Fit HillSlope (curve fit)	Fit Zero Activity [%] [3] [%]	Fit Infinite Activity [%] (curve fit, activity at infinite concentration)	Fit LogAC50 [1]	Fit Curve Class	Fit HillSlope	Fit Zero Activity [%]	Score	EC50 [µM]
C/C(=N\NC(=O)c1cc(C)oc1C)c1ccc2ccccc2c1 [Compound 149]	8.91	42	2.2	1.111	−1.9678							
CC(C)c1ccc(NC(=O)CN2C(=O)c3ccccc3S2(=O)=O)cc1 [Compound 150]	10	42	2.2	4.5045	−0.2112							
CCCCC(C(=O)NC1CCCC1)N(C(=O)c1snc(C(N)=O)c1N)c1ccc(C)cc1 (stereo not shown) [Compound 151]	10	42	2.1	3.132	−26.3814							
COc1ccc(S(=O)(=O)Nc2ccc(S(=O)(=O)Nc3nccs3)cc2)cc1 [Compound 152]	12.6	42	2.2	1.1341	−8.4801							
Cc1cc(C(=O)Nc2cccc3ccccc23)c(C)o1 [Compound 153]	7.94	42	2.1	1.5095	−21.2671							
CC1(C)Cc2c(cnn2-c2cccc(F)c2)C(NC(=O)CCc2cnccn2)C1 (stereo not shown) [Compound 154]	3.16	42	2.1	0.9	−46.353							
Cc1c(C(=O)N2CCCCC2)c(S(=O)(=O)Nc2cccc(Br)c2)c(C)n1C [Compound 155]	10	42	2.1	3.99	−32.1225							
O=S(=O)(N/C(=N/C1CCCCC1)c1ccccc1F)c1ccccc1 [Compound 156]	10	42	2.2	2.5334	−0.0336							
O=[N+]([O-])c1cccc(S(=O)(=O)N2CCN(S(=O)(=O)N3CCOCC3)CC2)c1 [Compound 158]	10	42	2.2	1.9282	−0.5234							
CC(=O)Nc1ccc(NC(=O)c2cc(=O)c3cc(C)cc(C)c3o2)cc1 [Compound 159]	11.2	42	2.1	4.095	−2.9033							
COc1ccc(/C=C(\NC(=O)c2ccc(C)cc2)C(=O)Nc2ccc(C(=O)O)cc2)cc1 [Compound 160]	11.2	42	2.1	4.095	−2.4804							
O=S(=O)(c1ccccc1)N1CCCC(c2nc(O)c3nnn(Cc4cccc(Cl)c4)c3n2)C1 (stereo not shown) [Compound 161]	3.98	42	2.1	1.1	−42.9418							
COc1cccc(NC(=O)c2ccc3c(c2)CCCC3)c1 [Compound 162]	5.62	42	2.1	2.2526	−31.8121							
CN(C)CCNc1ncnc2sc(-c3ccccc3)cc12 [Compound 163]	10	42	2.2	4.045	−0.8551							
CCCN1C2CCCC1CC(NC(=O)c1cccc([N+](=O)[O-])c1)C2 (stereo not shown) [Compound 164]		42	2.1	4.5045	0.8371	91.825	−5					
O=C(NCCc1ccc(F)cc1)N[C@@H](Cc1ccccc1)C(=O)O [Compound 165]	11.2	42	2.1	4.5045	−20.12							
Cl.O=C(CN1CCOCC1)NCc1cc([N+](=O)[O-])ccc1O [Compound 166]	12.6	42	2.1	1.3987	10.3691							
COc1cc(Cl)cc(CN2CCC(CCC(=O)NC3CC3)CC2)c1OC [Compound 167]	7.08	42	2.1	1.7885	−38.2233							
COc1ccccc1C(=O)NCCOc1ccc(C(C)(C)C)cc1 [Compound 168]	8.91	42	2.2	1.9673	−0.7805							
COc1nccc(NCc2ccccc2)c1C#N [Compound 169]	10	42	2.1	4.4495	−19.7104							
Br.COc1ccc(C(=O)CN2CCCCC2)cc1 [Compound 181]								2.1	4.9549	12.5	42	12.6
CNP(=O)(Oc1ccccc1)OC12CC3CC(CC(C3)C1)C2 (stereo not shown) [Compound 182]								2.1	2.2481	−0.8571	42	10

Second part, led by results:

EC50 [1] [µM]	SMILES	Score (Table 12 compound data)	Fit Curve Class [2]	Fit HillSlope (curve fit)	Fit Zero Activity [%] [3] [%]	Fit Infinite Activity [%] (curve fit, activity at infinite concentration)	Fit LogAC50 [1]	Fit Curve Class	Fit HillSlope	Fit Zero Activity [%]	Score	EC50 [µM]
10	Cc1ccc(-c2csnn2)cc1 [Compound 170]	42	2.1	4.4495	3.4732							
10	Cc1nc2c(cnn2-c2ccccc2)c(=O)n1/N=C/c1ccccc1 [Compound 171]	42	2.2	3.132	9.9159							
10	CN(C)/C(S)=N/c1cccc(C(F)(F)F)c1 [Compound 172]	42	2.2	2.3332	8							
11.2	CC(C)(C)N/C=C(\C#N)S(=O)(=O)c1ccc(Br)cc1 [Compound 173]	42	2.2	0.9	7.5952							
11.2	O=C(O)CCCNC(=O)CCn1nnc2ccccc2c1=O [Compound 174]	42	2.1	1.8579	−20.386							
5.62	CCNC(=O)COC(=O)c1cc(-c2ccco2)nc2ccccc12 [Compound 175]	42	2.1	1.3443	−62.687							
10	COc1cccc(N2C(=O)CC(N3CCc4ccccc4C3)C2=O)c1 (stereo not shown) [Compound 176]	42	2.1	4.9549	−19.4361							
10	COC(=O)C1=NNC2(C)C(=O)N(c3ccc(C)cc3)C(=O)C12 (stereo not shown) [Compound 177]	42	2.2	4.9549	0.9153							
11.2	CCCOc1nc(SCCC)nc2c1cnn2-c1ccccc1 [Compound 178]	42	2.1	1.1341	−22.6542							
5.62	COc1ccc(O)c(/C=N/NC(=O)c2cc(O)nc3ccccc23)c1 [Compound 179]	42	2.1	2.2526	−35.6913							
10	CCOc1ccc(NC(=O)CN2C(=O)NC(CCSC)C2=O)cc1 (stereo not shown) [Compound 180]	42	2.2	3.1925	−1.6238							
10	O=C(CCc1ccccc1)c1nnc(-c2ccccc2)o1 [Compound 183]	42	2.1	4.4495	1.0471							
10	COc1ccc(CNC(=O)COC(=O)CCc2c[nH]c3ccccc23)cc1 [Compound 184]	42	2.1	2.9023	−0.6011							
10	COc1ccccc1OCC(=O)N/N=C1/C=C(C)CC1 [Compound 185]	42	2.1	4.9549	−23.4705							
3.98	CC(C(=O)Nc1ccc(C#N)cc1)N(C)CC(=O)Nc1cccc(F)c1 (stereo not shown) [Compound 186]	42	2.1	0.9	−45.5302							
8.91	COC(=O)C1SCC2C(=O)N(Cc3ccc(F)cc3)CC(=O)N21 (stereo not shown) [Compound 187]	42	2.1	1.3437	−54.3669							
10	COc1ccc(-c2cc(COc3ccccc3)on2)cc1 [Compound 188]	42	2.1	4.5045	0.195							

From patent US10028992B2, “Methods of treating muscular dystrophy” (BOARD OF REGENTS OF THE NEVADA SYSTEM OF HIGHER EDUCATION …, priority 2012, dated 2018)
